Values joined by “and” are separate entries in the source; they are usually repeats but may differ in a detail not shown here. Equal entries are not always repeated.
System: WM3248 melanoma cells, 486 antibodies
Test: Reverse phase protein arrays (RPPA)
Format: cell-based, Human
From the text: Pellets were snap frozen in liquid nitrogen and shipped to MD Anderson Cancer Center core RPPA facility for RPPA analysis (Table S5). Three biological replicates for each sample were generated.
Nomenclatures on the RPPA heatmaps: name_of_antibody.species_of_antibody.status_of_antibody. V - antibody validated; C - validation of antibody in progress; Q - antibody nonspecific; E – under evaluation; antibodies raised in M - mouse, G - goat, R - rabbit, or T - rat.

[1] = 20, replicates 1-3, normalized to 0
[2] = Norm_5: replicates 1-3 and Average, relative to 0

CN(C)c1cccc(Nc2cc(-c3ccccc3)nc(C3CCNCC3)n2)c1 [ARN22089, N1,N1-dimethyl-N3-(6-phenyl-2-(piperidin-4-yl)pyrimidin-4-yl)benzene-1,3-diamine]
eIF4E_pS209.R.V Norm_20 [1]: 0.954 and 0.835 and 1.321
eIF4G.R.C Norm_20 [1]: 1.493 and 1.003 and 0.999
MYH11.R.C Average (Norm_5, normalized to Norm_0): 1.033
Myosin.IIa.R.C Average (Norm_5, normalized to Norm_0): 0.991
Myosin.IIa_pS1943.R.V Average (Norm_5, normalized to Norm_0): 0.992
Myt1.R.C Average (Norm_5, normalized to Norm_0): 1.030
N.Cadherin.R.V Average (Norm_5, normalized to Norm_0): 0.967
N.Ras.M.V Average (Norm_5, normalized to Norm_0): 0.979
NDRG1_pT346.R.V Average (Norm_5, normalized to Norm_0): 1.270
NDUFB4.R.V Average (Norm_5, normalized to Norm_0): 0.954
NRF2.R.C Average (Norm_5, normalized to Norm_0): 1.024
Notch1.R.V Average (Norm_5, normalized to Norm_0): 0.893
Notch1.cleaved.R.V Average (Norm_5, normalized to Norm_0): 1.048
Notch3.R.C Average (Norm_5, normalized to Norm_0): 0.987
Oct.4.R.C Average (Norm_5, normalized to Norm_0): 1.097
P.Cadherin.R.C Average (Norm_5, normalized to Norm_0): 1.185
PAI.1.M.V Average (Norm_5, normalized to Norm_0): 0.899
PAICS.R.C Average (Norm_5, normalized to Norm_0): 0.934
PAK1.R.V Average (Norm_5, normalized to Norm_0): 0.952
PAK4.R.V Average (Norm_5, normalized to Norm_0): 0.942
PAK_pS474_S602_S560.R.V Average (Norm_5, normalized to Norm_0): 0.943
PAK_pT423_T402.R.C Average (Norm_5, normalized to Norm_0): 0.942
PAR.R.C Average (Norm_5, normalized to Norm_0): 2.806
PARG.R.C Average (Norm_5, normalized to Norm_0): 1.053
PAX6.R.V Average (Norm_5, normalized to Norm_0): 0.980
PAX8.R.C Average (Norm_5, normalized to Norm_0): 0.929
PCNA.M.C Average (Norm_5, normalized to Norm_0): 0.930
PD.1.R.V Average (Norm_5, normalized to Norm_0): 0.933
PD.L1.R.C Average (Norm_5, normalized to Norm_0): 1.049
PDH.M.V Average (Norm_5, normalized to Norm_0): 0.971
PDHA1.R.V Average (Norm_5, normalized to Norm_0): 1.000
PDHK1.R.C Average (Norm_5, normalized to Norm_0): 1.047
PDK1.R.V Average (Norm_5, normalized to Norm_0): 1.053
PDK1_pS241.R.V Average (Norm_5, normalized to Norm_0): 1.123
PEA.15.R.V Average (Norm_5, normalized to Norm_0): 0.989
PEA.15_pS116.R.V Average (Norm_5, normalized to Norm_0): 0.945
PERK.R.V Average (Norm_5, normalized to Norm_0): 0.967
PGM1.R.V Average (Norm_5, normalized to Norm_0): 1.019
PHLPP.R.V Average (Norm_5, normalized to Norm_0): 1.011
PI3K.p85.R.C Average (Norm_5, normalized to Norm_0): 0.931
PI3K.p110.a.R.C Average (Norm_5, normalized to Norm_0): 1.007
PI3K.p110.b.M.C Average (Norm_5, normalized to Norm_0): 0.980
PKA.a.R.V Average (Norm_5, normalized to Norm_0): 1.083
PKC.a.b.II_pT638_T641.R.V Average (Norm_5, normalized to Norm_0): 0.910
PKC.b.II_pS660.R.V Average (Norm_5, normalized to Norm_0): 1.083
PKCa.R.V Average (Norm_5, normalized to Norm_0): 1.160
PLC.gamma1.R.V Average (Norm_5, normalized to Norm_0): 1.065
PLC.gamma1_pS1248.R.V Average (Norm_5, normalized to Norm_0): 1.197
PLC.gamma2_pY759.R.V Average (Norm_5, normalized to Norm_0): 0.941
PLK1.R.C Average (Norm_5, normalized to Norm_0): 0.892
PMS2.R.V Average (Norm_5, normalized to Norm_0): 0.916
PR.R.V Average (Norm_5, normalized to Norm_0): 0.959
PRAS40.M.C Average (Norm_5, normalized to Norm_0): 0.988
PRC1_pT481.R.C Average (Norm_5, normalized to Norm_0): 0.915
Patched.R.C Average (Norm_5, normalized to Norm_0): 1.046
Paxillin.R.C Average (Norm_5, normalized to Norm_0): 1.013
Pdcd4.R.C Average (Norm_5, normalized to Norm_0): 1.126
Porin.M.V Average (Norm_5, normalized to Norm_0): 0.959
p21.R.C Average (Norm_5, normalized to Norm_0): 0.958
p27.Kip1.R.C Average (Norm_5, normalized to Norm_0): 0.986
p27_pT157.R.C Average (Norm_5, normalized to Norm_0): 1.081
p27_pT198.R.V Average (Norm_5, normalized to Norm_0): 1.051
p38.MAPK._pT180_Y182.R.V Average (Norm_5, normalized to Norm_0): 1.202
p38.a.M.V Average (Norm_5, normalized to Norm_0): 0.984
p44.42.MAPK.R.V Average (Norm_5, normalized to Norm_0): 1.160
p53.R.C Average (Norm_5, normalized to Norm_0): 1.083
p70.S6K1.R.V Average (Norm_5, normalized to Norm_0): 1.109
p90RSK_pT573.R.C Average (Norm_5, normalized to Norm_0): 0.871
PREX1.R.V normalized RPPA signal [2]: 1.167 and 1.060 and 1.135 and 1.121
PTEN.R.V normalized RPPA signal [2]: 1.061 and 1.012 and 1.047
PTPN12.R.V normalized RPPA signal [2]: 1.010 and 0.988 and 1.023
PYGB.R.V normalized RPPA signal [2]: 1.017 and 1.164 and 0.766 and 0.982
PYGM.M.C normalized RPPA signal [2]: 0.997 and 1.153 and 0.846 and 0.999
Puma.R.C normalized RPPA signal [2]: 1.064 and 1.136 and 0.836 and 1.012
Pyk2_pY402.R.C normalized RPPA signal [2]: 1.133 and 1.024 and 1.065
RBM15.R.V normalized RPPA signal [2]: 0.984 and 1.128
RIP3.R.C normalized RPPA signal [2]: 1.061 and 1.027 and 1.055 and 1.048
RIP.R.C normalized RPPA signal [2]: 0.916 and 0.977 and 0.799 and 0.897
RPA32.R.V normalized RPPA signal [2]: 1.150 and 0.846 and 1.011
RPA32_pS4_S8.R.C normalized RPPA signal [2]: 1.171 and 1.234 and 0.878
RRM1.R.C normalized RPPA signal [2]: 0.936 and 0.952 and 0.975
RRM2.R.C normalized RPPA signal [2]: 0.907 and 1.001 and 0.922 and 0.943

Reference: publication PMC9127750, “Structure-based design of CDC42 effector interaction inhibitors for the treatment of cancer” (Cell reports, 2022)
